From US20240254115A1 (ACONDICIONAMIENTO TARRASENSE, priority 2021, published 2024)

How the values were obtained:
human σ1 receptor = biological target: T1, human σ1 receptor (Homo sapiens, UniProt Q99720); assay: Human σ1 receptor radioligand assay; conditions: transfected HEK-293 membranes, 5 nM [3H](+)-pentazocine, 37° C. 120 minutes; + may also stand for 1-50% inhibition at 1 or 10 μM; read-out: Binding σ-1 Ki
T1 construct: expressed in transfected cells; host or cells: HEK-293
Experimental: Human σ1 Receptor Radioligand Assay
Transfected HEK-293 membranes (7 μg) were incubated with 5 nM of [^3H](+)-pentazocine in assay buffer containing Tris-HCl 50 mM at pH 8. NBS (non-specific binding) was measured by adding 10 μM haloperidol. The binding of the test compound was measured at either one concentration (% inhibition at 1 or 10 μM) or five different concentrations to determine affinity values (Ki). Plates were incubated at 37° C. for 120 minutes. After the incubation period, the reaction mix was then transferred to MultiScreen HTS, FC plates (Millipore), filtered and plates were washed 3 times with ice-cold 10 mM Tris-HCL (pH7.4). Filters were dried and counted at approximately 40% efficiency in a MicroBeta scintillation counter (Perkin-Elmer) using EcoScint liquid scintillation cocktail.

human σ2/TMEM97 receptor = biological target: T2, human σ2/TMEM97 receptor (Homo sapiens, UniProt Q5BJF2); assay: Binding assay to human σ2/TMEM97 receptor; conditions: transfected HEK-293 membranes, 10 nM [3H]-DTG, 25° C. 120 minutes; + may also stand for 1-50% inhibition at 1 or 10 μM; read-out: Binding σ-2 Ki
T2 construct: expressed in transfected cells; host or cells: HEK-293
Experimental: Binding Assay to Human σ2/TMEM97 Receptor
Transfected HEK-293 membranes (15 μg) were incubated with 10 nM [^3H]-1,3-Di-o-tolylguanidine (DTG) in assay buffer containing Tris-HCl 50 mM at pH 8.0. NSB (non-specific binding) was measured by adding 10 μM haloperidol. The binding of the test compound was measured at either one concentration (% inhibition at 1 or 10 μM) or five different concentrations to determine affinity values (Ki). Plates were incubated at 25° C. for 120 minutes. After the incubation period, the reaction mix was transferred to MultiScreen HTS, FC plates (Millipore), filtered and washed 3 times with ice-cold 10 mM Tris-HCL (pH 8.0). Filters were dried and counted at approximately 40% efficiency in a MicroBeta scintillation counter (Perkin-Elmer) using EcoScint liquid scintillation cocktail.

T1 sequence (Q99720 whole entry): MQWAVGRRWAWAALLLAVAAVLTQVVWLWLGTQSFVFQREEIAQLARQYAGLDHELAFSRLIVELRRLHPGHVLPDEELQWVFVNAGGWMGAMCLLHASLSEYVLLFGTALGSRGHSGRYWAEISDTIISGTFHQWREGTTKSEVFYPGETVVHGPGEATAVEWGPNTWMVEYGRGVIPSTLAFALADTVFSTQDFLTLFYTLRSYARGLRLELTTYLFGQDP
T2 sequence (Q5BJF2 whole entry): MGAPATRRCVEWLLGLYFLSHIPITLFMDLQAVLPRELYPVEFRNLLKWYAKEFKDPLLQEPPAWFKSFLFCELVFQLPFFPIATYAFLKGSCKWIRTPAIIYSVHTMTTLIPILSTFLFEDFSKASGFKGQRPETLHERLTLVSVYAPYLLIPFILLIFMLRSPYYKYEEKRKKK

Row | Ki (human σ1 receptor) [nM] | Ki (human σ2/TMEM97 receptor) [nM] | SMILES
1 | > 1000 | < 100 | CN(Cc1ccccc1)[C@H]1CC[C@H](NS(=O)(=O)c2ccc(N3CCC4(CCCO4)CC3)nc2)CC1 [Example 176, N-((1r,4r)-4-(Benzyl(meth-yl)amino)cyclohexyl)-6-(1-oxa-8-azaspiro[4.5]decan-8-yl)pyridine-3-sulfonamide]
2 | < 100 | < 100 | O=C1OCCN1c1ccc(S(=O)(=O)N2CCCC3(CCN(CC4CCOCC4)CC3)C2)nc1 [Example 127, 3-(6-((9-((Tetrahydro-2H-pyran-4-yl)methyl)-2,9-diazaspiro[5.5]undecan-2-yl)sulfonyl)pyridin-3-yl)oxazolidin-2-one]
3 | 100 to 500 | 100 to 500 | N#Cc1ccc(CN2CCC3(CC2)CCN(S(=O)(=O)c2ccc(N4CCOC4=O)nc2)C3)cc1F [Example 164, 2-Fluoro-4-((2-((6-(2-oxooxazolidin-3-yl)pyridin-3-yl)sulfonyl)-2,8-diazaspiro[4.5]decan-8-yl)methyl)benzonitrile]
4 | > 1000 | < 100 | CN(Cc1ccc(C#N)cc1F)C1CCN(S(=O)(=O)c2ccc(N3CCC(F)(F)CC3)nc2)CC1 [Example 171, 4-(((1-((6-(4,4-Difluoropiperidin-1-yl)pyridin-3-yl)sulfonyl)piperidin-4-yl)(methyl)amino)methyl)-3-fluorobenzonitrile]
5 | 100 to 500 | < 100 | CC(C)(C)CCN1CCC2(CCCN(S(=O)(=O)c3ccc(N4CCCCC4=O)nc3)C2)CC1 [Example 122, 1-(5-((9-(3,3-Dimethylbutyl)-2,9-diazaspiro[5.5]undecan-2-yl)sulfonyl)pyridin-2-yl)piperidin-2-one]
6 | 500 to 1000 | < 100 | CN(CCC(C)(C)C)[C@H]1CC[C@H](NS(=O)(=O)c2ccc(N3CCC4(CCOC4)CC3)nc2)CC1 [Example 181, N-((1r,4r)-4-((3,3-Dimethylbut-yl)(methyl)amino)cyclohexyl)-6-(2-oxa-8-azaspiro[4.5]decan-8-yl)pyridine-3-sulfonamide]
7 | < 100 | < 100 | CC(C)(C)CCN1CCC2(CCCN(S(=O)(=O)c3ccc(-c4ccncc4)nc3)C2)CC1 [Example 112, 2-([2,4′-Bipyridin]-5-ylsulfonyl)-9-(3,3-dimethylbutyl)-2,9-diazaspiro[5.5]undecane]
8 | < 100 | < 100 | O=C1OCCN1c1ccc(S(=O)(=O)N2CCCC3(CCN(Cc4ccccc4)CC3)C2)cn1 [Example 155, 3-(5-((9-Benzyl-2,9-diazaspiro[5.5]undecan-2-yl)sulfonyl)pyridin-2-yl)oxazolidin-2-one]
9 | 100 to 500 | < 100 | CN(CC1CCOCC1)C1CCN(S(=O)(=O)c2ccc(N3CCC(F)(F)CC3)nc2)CC1 [Example 169, 1-((6-(4,4-Difluoropiperidin-1-yl)pyridin-3-yl)sulfonyl)-N-methyl-N-((tetrahydro-2H-pyran-4-yl)methyl)piperidin-4-amine]
10 | < 100 | 100 to 500 | O=C1OCCN1c1ccc(S(=O)(=O)N2CCC3(CCCN(CC4CCOCC4)C3)CC2)cn1 [Example 149, 3-(5-((2-((Tetrahydro-2H-pyran-4-yl)methyl)-2,9-diazaspiro[5.5]undecan-9-yl)sulfonyl)pyridin-2-yl)oxazolidin-2-one]
11 | < 100 | < 100 | CC(C)(C)CCN1CCCC2(CCN(S(=O)(=O)c3ccc(N4CCOC4=O)cn3)CC2)C1 [Example 154, 3-(6-((2-(3,3-Dimethylbutyl)-2,9-diazaspiro[5.5]undecan-9-yl)sulfonyl)pyridin-3-yl)oxazolidin-2-one]
12 | 100 to 500 | 100 to 500 | O=C1OCCN1c1ccc(S(=O)(=O)N2CCC3(CCN(Cc4ccccc4)CC3)C2)cn1 [Example 144, 3-(5-((8-Benzyl-2,8-diazaspiro[4.5]decan-2-yl)sulfonyl)pyridin-2-yl)oxazolidin-2-one]
13 | 500 to 1000 | > 1000 | CC(C)(C)CN1CCCC2(CCN(S(=O)(=O)c3ccc(N4CCOC4=O)nc3)CC2)C1 [Example 150, 3-(5-((2-Neopentyl-2,9-diazaspiro[5.5]undecan-9-yl)sulfonyl)pyridin-2-yl)oxazolidin-2-one]

The next lines start with the compound.

Row | SMILES | Ki (human σ1 receptor) [nM] | Ki (human σ2/TMEM97 receptor) [nM]
14 | CC(C)(C)CCN1CCC2(CC1)CCN(S(=O)(=O)c1ccc(C(F)(F)F)nc1)CC2 [Example 66, 3-(3,3-Dimethylbutyl)-9-((6-(trifluoromethyl)pyridin-3-yl)sulfonyl)-3,9-diazaspiro[5.5]undecane] | < 100 | < 100
15 | CC(C)(C)CCN1CCC2(CC1)CCN(S(=O)(=O)c1ccc(N3CCC(F)(F)CC3)nc1)CC2 [Example 70, 3-((6-(4,4-Difluoropiperidin-1-yl)pyridin-3-yl)sulfonyl)-9-(3,3-dimethylbutyl)-3,9-diazaspiro[5.5]undecane] | < 100 | < 100
16 | CN(C)c1ccc(S(=O)(=O)N[C@H]2CCN(Cc3ccccc3)C2)cn1 [Example 21, (S)-N-(1-Benzylpyrrolidin-3-yl)-6-(dimethylamino) pyridine-3-sulfonamide] | < 100 | > 1000
17 | O=S(=O)(NC1CN(Cc2ccccc2)C1)c1ccc(N2CCOCC2)nc1 [Example 43, N-(1-Benzylazetidin-3-yl)-6-morpholinopyridine-3-sulfonamide] | < 100 | > 1000
18 | CC(C)(C)CCN1CCC2(CCCN(S(=O)(=O)c3ccc(N4CCC5(CCOC5)CC4)nc3)C2)CC1 [Example 95, 8-(5-((9-(3,3-Dimethylbutyl)-2,9-diazaspiro[5.5]undecan-2-yl)sulfonyl)pyridin-2-yl)-2-oxa-8-azaspiro[4.5]decane] | < 100 | < 100
19 | O=S(=O)(N[C@@H]1CCN(Cc2ccc(C(F)(F)F)nc2)C1)c1ccc(N2CCOCC2)nc1 [Example 44, (R)-6-Morpholino-N-(1-((6-(trifluoromethyl)pyridin-3-yl)methyl)pyrrolidin-3-yl)pyridine-3-sulfonamide] | 500 to 1000 | > 1000
20 | CC(=O)N(C)c1ccc(S(=O)(=O)N2CCC3(CCN(CCC(C)(C)C)CC3)CC2)cn1 [Example 103, N-(5-((9-(3,3-Dimethylbutyl)-3,9-diazaspiro[5.5]undecan-3-yl)sulfonyl)pyridin-2-yl)-N-methylacetamide] | 100 to 500 | < 100
21 | CN(Cc1ccccc1)[C@H]1CC[C@H](NS(=O)(=O)c2ccc(N3CCC4(CCOC4)CC3)nc2)CC1 [Example 31] | < 100 | < 100
22 | CN(C)c1ccc(S(=O)(=O)N[C@H]2CC[C@H](N(C)Cc3ccccc3)CC2)cn1 [Example 30, N-((1r,4r)-4-(Benzyl (methyl)amino)cyclohexyl)-6-(dimethylamino) pyridine-3-sulfonamide] | 500 to 1000 | 100 to 500
23 | CN([C@H]1CCN(Cc2ccccc2)C1)S(=O)(=O)c1ccc(N2CCOCC2)nc1 [Example 4, (S)-N-(1-Benzylpyrrolidin-3-yl)-N-methyl-6-morpholinopyridine-3-sulfonamide] | < 100 | > 1000
24 | O=S(=O)(c1ccc(N2CCC(F)(F)CC2)nc1)N1CCC2(CCN(Cc3ccccc3)CC2)CC1 [Example 74, 3-Denzyl-9-((6-(4,4-difluoropiperidin-1-yl)pyridin-3-yl)sulfonyl)-3,9-diazaspiro[5.5]undecane] | 100 to 500 | < 100
25 | CN(Cc1ccccc1F)[C@H]1CC[C@H](NS(=O)(=O)c2ccc(N3CCOCC3)nc2)CC1 [Example 56, N-((1r,4r)-4-((2-Fluorobenzyl)(methyl)amino)cyclohexyl)-6-morpholinopyridine-3-sulfonamide] | > 1000 | < 100
26 | CC(C)(C)CCN1CCC2(CC1)CCN(S(=O)(=O)c1ccc(N3CCC4(CCOC4)CC3)nc1)CC2 [Example 68, 8-(5-((9-(3,3-Dimethylbutyl)-3,9-diazaspiro[5.5]undecan-3-yl)sulfonyl)pyridin-2-yl)-2-oxa-8-azaspiro[4.5]decane] | 100 to 500 | < 100
27 | CN(Cc1ccc(F)c(C#N)c1)[C@H]1CC[C@H](NS(=O)(=O)c2ccc(N3CCOCC3)nc2)CC1 [Example 58, N-((1r,4r)-4-((3-Cyano-4-Fluorobenzyl)(methyl)amino)cyclo-hexyl)-6-morpholinopyridine-3-sulfonamide] | > 1000 | < 100
28 | CCC(=O)N(C)c1ccc(S(=O)(=O)N2CCCC3(CCN(CCC(C)(C)C)CC3)C2)cn1 [Example 104, N-(5-((9-(3,3-Dimethylbutyl)-2,9-diazaspiro[5.5]undecan-2-yl)sulfonyl)pyridin-2-yl)-N-methylpropionamide] | 100 to 500 | < 100
29 | O=S(=O)(NC1CCN(Cc2ccccc2)CC1)c1ccc(N2CCOCC2)nc1 [Example 2, N-(1-Benzylpiperidin-4-yl)-6-morpholinopyridine-3-sulfonamide] | < 100 | > 1000
